# Test results as given in ChEMBL document CHEMBL1145227, “5-Amidinobenzo[b]thiophenes as dual inhibitors of factors IXa and Xa” (Bioorg Med Chem Lett, 2005).
# Columns and labels:
# [1] = biological target: Coagulation factor X (Homo sapiens, UniProt P00742); assay: Inhibitory constant against human purified Coagulation factor Xa (fXa)
# [2] = biological target: Coagulation factor IX (Homo sapiens, UniProt P00740); assay: Inhibitory constant against human purified Coagulation factor IXa (fIXa)
# [3] = biological target: Prothrombin (Homo sapiens, UniProt P00734); assay: Inhibitory constant against human thrombin
# [4] = biological target: Trypsin (Homo sapiens, UniProt P07477+P07478+P35030); assay: Inhibitory constant against human trypsin; type: protein assay
# Sequence of Coagulation factor X (P00742 41-179 limits assumed): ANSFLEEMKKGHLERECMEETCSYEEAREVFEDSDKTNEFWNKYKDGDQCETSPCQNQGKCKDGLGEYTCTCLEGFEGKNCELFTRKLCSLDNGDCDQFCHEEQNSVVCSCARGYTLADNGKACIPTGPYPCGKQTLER
# Sequence of Coagulation factor X (P00742 235-488 limits assumed): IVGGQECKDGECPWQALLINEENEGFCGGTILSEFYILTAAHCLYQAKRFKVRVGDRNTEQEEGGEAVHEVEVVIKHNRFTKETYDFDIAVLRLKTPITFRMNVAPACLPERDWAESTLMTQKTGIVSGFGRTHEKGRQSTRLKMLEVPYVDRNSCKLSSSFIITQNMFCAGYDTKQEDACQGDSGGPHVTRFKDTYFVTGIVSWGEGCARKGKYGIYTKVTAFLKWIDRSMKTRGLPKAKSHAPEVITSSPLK
# Sequence of Coagulation factor IX (P00740 47-191 limits assumed): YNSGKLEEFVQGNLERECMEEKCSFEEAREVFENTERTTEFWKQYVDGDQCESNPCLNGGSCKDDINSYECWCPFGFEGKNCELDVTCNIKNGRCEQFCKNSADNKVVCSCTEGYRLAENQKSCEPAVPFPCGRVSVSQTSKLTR
# Sequence of Coagulation factor IX (P00740 227-461 limits assumed): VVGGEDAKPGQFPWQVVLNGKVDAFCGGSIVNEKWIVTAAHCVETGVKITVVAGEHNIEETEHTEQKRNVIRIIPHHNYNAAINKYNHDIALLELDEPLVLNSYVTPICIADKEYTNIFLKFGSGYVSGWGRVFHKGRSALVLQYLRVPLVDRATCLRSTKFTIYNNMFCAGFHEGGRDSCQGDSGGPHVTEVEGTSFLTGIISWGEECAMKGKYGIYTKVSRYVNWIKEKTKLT
Compound,Ki [1],Ki [2],Ki [3],Ki [4]
COC(=O)[C@H]1CCCCC1NNC(=O)C(Cc1ccccc1)c1csc2ccc(C(=N)N)cc12 (some centres undefined),300 nM,310 nM,,
N=C(N)c1ccc2scc([C@H](Cc3ccccc3)C(=O)NC3CCCC[C@H]3C(=O)NCC(N)=O)c2c1 (some centres undefined),65 nM,280 nM,,
CCC(C(=O)Nc1ccc(-n2cnc3ccccc32)cc1)c1csc2ccc(C(=N)N)cc12.O=C(O)C(F)(F)F (centres undefined),71 nM,220 nM,> 270 nM,270 nM
N=C(N)c1ccc2scc(C(Cc3ccccc3)C(=O)Nc3ccc(-n4cnc5ccccc54)cc3)c2c1.O=C(O)C(F)(F)F (centres undefined),120 nM,98 nM,> 6300 nM,1020 nM
COC(=O)[C@H]1CCCCC1NNC(=O)[C@H](Cc1ccccc1)c1csc2ccc(C(=N)N)cc12 (some centres undefined),270 nM,280 nM,,
COC(=O)[C@@H]1CCCCC1NC(=O)[C@@H](Cc1ccccc1)c1csc2ccc(C(=N)N)cc12 (some centres undefined),120 nM,140 nM,,
CCOC(=O)[C@@H]1CCCCC1NC(=O)C(Cc1ccccc1)c1coc2ccc(C(=N)N)cc12 (some centres undefined),270 nM,1190 nM,,> 4200 nM
COC(=O)[C@H]1CCCCC1NNC(=O)[C@@H](Cc1ccccc1)c1csc2ccc(C(=N)N)cc12 (some centres undefined),> 9000 nM,41300 nM,,
N=C(N)c1ccc2scc(C(Cc3cccc4ccccc34)C(=O)Nc3ccc(-n4cnc5ccccc54)cc3)c2c1.O=C(O)C(F)(F)F (centres undefined),740 nM,230 nM,> 6300 nM,3900 nM
COC(=O)[C@@H]1CCCCC1NC(=O)C(Cc1ccccc1)c1c[nH]c2ccc(C(=N)N)cc12 (some centres undefined),19 nM,340 nM,,1500 nM
N=C(N)c1ccc2scc([C@H](Cc3ccccc3)C(=O)NC3CCCC[C@H]3C(=O)NCc3ccccc3)c2c1 (some centres undefined),> 9000 nM,> 32000 nM,,
CCOC(=O)[C@@H]1CCCCC1NC(=O)[C@@H](Cc1ccccc1)c1cccc2ccc(C(=N)N)cc12 (some centres undefined),530 nM,240 nM,,> 4200 nM
"N=C(N)c1ccc2scc(C(Cc3ccccc3)C(=O)Nc3ccc4ncsc4c3)c2c1 (single isomer, unassigned)",5700 nM,14200 nM,,
N=C(N)c1ccc2scc(C(CC(=O)Nc3ccc(-n4cnc5ccccc54)cc3)Cc3ccccc3)c2c1.O=C(O)C(F)(F)F (centres undefined),280 nM,1250 nM,4200 nM,> 4200 nM
N=C(N)c1ccc2scc(C(Cc3ccc(N)cc3)C(=O)Nc3ccc(-n4cnc5ccccc54)cc3)c2c1.O=C(O)C(F)(F)F (centres undefined),47 nM,74 nM,4200 nM,> 4200 nM
N=C(N)c1ccc2[nH]cc(C(Cc3ccc(N)cc3)C(=O)Nc3ccc(-n4cnc5ccccc54)cc3)c2c1.O=C(O)C(F)(F)F (centres undefined),,,4200 nM,> 4200 nM
N=C(N)c1ccc2scc(C(Cc3ccccc3)C(=O)Nc3ccc(Oc4ccccc4)cc3)c2c1 (centres undefined),450 nM,250 nM,,

Compound,Ki [1],Ki [2],Ki [3],Ki [4]
COC(=O)[C@@H]1CCCCC1NNC(=O)C(Cc1ccccc1)c1csc2ccc(C(=N)N)cc12 (some centres undefined),90 nM,500 nM,,
CC1CCC(NC(=O)C(Cc2ccccc2)c2csc3ccc(C(=N)N)cc23)CC1 (centres undefined),3240 nM,580 nM,,
N=C(N)c1ccc2scc(C(Cc3ccccc3)C(=O)Nc3ccc(S(=O)(=O)Nc4ccc(Cl)nn4)cc3)c2c1 (centres undefined),5360 nM,930 nM,,
N=C(N)c1ccc2scc(C(Cc3ccccc3)C(=O)Nc3ccc(-n4ccc(C(F)(F)F)n4)cc3)c2c1 (centres undefined),410 nM,130 nM,,
CCNC(=O)[C@@H]1CCCCC1NC(=O)[C@@H](Cc1ccccc1)c1csc2ccc(C(=N)N)cc12 (some centres undefined),130 nM,430 nM,,
Cc1ccc(F)cc1NC(=O)C(Cc1ccccc1)c1csc2ccc(C(=N)N)cc12 (centres undefined),> 8000 nM,960 nM,,
N=C(N)c1ccc2scc([C@@H](Cc3ccccc3)C(=O)Nc3ccc4ncsc4c3)c2c1,2700 nM,480 nM,,
N=C(N)c1ccc2scc(C(Cc3ccccc3)C(=O)Nc3ccc(-n4cnc(-c5ccccc5)c4)cc3)c2c1.O=C(O)C(F)(F)F (centres undefined),2020 nM,390 nM,> 6300 nM,> 4200 nM
N=C(N)c1ccc2scc([C@H](Cc3ccccc3)C(=O)NC3CCCC[C@H]3C(=O)O)c2c1 (some centres undefined),200 nM,3500 nM,,
N#Cc1ccc(NC(=O)C(Cc2ccccc2)c2csc3ccc(C(=N)N)cc23)cc1 (centres undefined),> 8000 nM,1730 nM,,
N=C(N)c1ccc2scc(C3(C(=O)Nc4ccc(-n5cnc6ccccc65)cc4)CC3)c2c1.O=C(O)C(F)(F)F,22 nM,4900 nM,390 nM,60 nM
N=C(N)c1ccc2[nH]cc(C(Cc3ccccc3)C(=O)Nc3ccc(-n4cnc5ccccc54)cc3F)c2c1.O=C(O)C(F)(F)F (centres undefined),,,13000 nM,340 nM
N=C(N)c1ccc2[nH]cc(C(Cc3ccccc3)C(=O)Nc3ccc(-c4ccccc4S(N)(=O)=O)cc3)c2c1 (centres undefined),,,600 nM,150 nM
CCOC(=O)[C@@H]1CCCCC1NC(=O)C(Cc1ccccc1)C1=CS(=O)(=O)c2ccc(C(=N)N)cc21 (some centres undefined),> 9000 nM,8530 nM,,> 4200 nM
N=C(N)c1ccc2scc(C(Cc3ccccc3)C(=O)Nc3ccc4ncsc4c3)c2c1 (centres undefined),> 8000 nM,780 nM,,
CCOC(=O)[C@@H]1CCCCC1NC(=O)[C@@H](Cc1ccccc1)c1csc2ccc(C(=N)N)cc12 (some centres undefined),180 nM,120 nM,,
